Reference: PubChem BioAssay (NCI)
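Tested at 5 concentrations; 48 h exposure; 96-well plates; endpoints linearly interpolated, else capped at highest concentration. At the TGI there is no net growth.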

Legend:
Assay in all cases: NCI-60 cell line screen, 48 h
[1] = system: 786-0 renal
[2] = system: A498 renal
[3] = system: A549 NSCLC
[4] = system: ACHN renal
[5] = system: BT-549 breast
[6] = system: CAKI-1 renal
[7] = system: CCRF-CEM leukemia
[8] = system: COLO 205 colon
[9] = system: DU-145 prostate
[10] = system: EKVX NSCLC
[11] = system: HCC-2998 colon
[12] = system: HCT-116 colon
[13] = system: HCT-15 colon
[14] = system: HL-60(TB) leukemia
[15] = system: HOP-62 NSCLC
[16] = system: HOP-92 NSCLC
[17] = system: HS 578T breast
[18] = system: HT29 colon
[19] = system: IGROV1 ovarian
[20] = system: K-562 leukemia
[21] = system: KM12 colon
[22] = system: LOX IMVI melanoma
[23] = system: M14 melanoma
[24] = system: MALME-3M melanoma
[25] = system: MCF7 breast
[26] = system: MDA-MB-231 breast
[27] = system: MDA-MB-435
[28] = system: MDA-N
[29] = system: MOLT-4 leukemia
[30] = system: NCI-H226 lung
[31] = system: NCI-H23 lung
[32] = system: NCI-H460 lung
[33] = system: NCI-H522 lung
[34] = system: NCI/ADR-RES ovarian
[35] = system: OVCAR-3 ovarian
[36] = system: OVCAR-4 ovarian
[37] = system: OVCAR-5 ovarian
[38] = system: OVCAR-8 ovarian
[39] = system: PC-3 prostate
[40] = system: RPMI-8226 leukemia
[41] = system: RXF 393 renal
[42] = system: SF-268 CNS
[43] = system: SF-295 CNS
[44] = system: SF-539 CNS
[45] = system: SK-MEL-2 melanoma
[46] = system: SK-MEL-28 melanoma
[47] = system: SK-MEL-5 melanoma
[48] = system: SK-OV-3 ovarian
[49] = system: SN12C renal
[50] = system: SNB-19 CNS
[51] = system: SNB-75 CNS
[52] = system: SW-620 colon
[53] = system: T-47D breast
[54] = system: TK-10 renal
[55] = system: U251 CNS
[56] = system: UACC-257 melanoma
[57] = system: UACC-62 melanoma
[58] = system: UO-31 renal

## CN(C)CCCCN1c2ccccc2Sc2ccc(N=[N+]=[N-])cc21
[1]
  TGI: 23.6 µM
[2]
  TGI: 21.5 µM
[3]
  TGI: 22.6 µM
[4]
  TGI: 12.3 µM
[5]
  TGI: 24.5 µM
[6]
  TGI: 18.4 µM
[7]
  TGI: 8.39 µM
[8]
  TGI: 3.13 µM
[9]
  TGI: 18.2 µM
[10]
  TGI: 26.3 µM
[11]
  TGI: 3.18 µM
[12]
  TGI: 16.3 µM
[13]
  TGI: 12.8 µM
[14]
  TGI: 4.3 µM
[15]
  TGI: 25.1 µM
[16]
  TGI: 13.4 µM
[17]
  TGI: 18.4 µM
[18]
  TGI: 5.22 µM
[19]
  TGI: 11.7 µM
[20]
  TGI: 4.56 µM
[21]
  TGI: 8.76 µM
[22]
  TGI: 5.77 µM
[23]
  TGI: 3.06 µM
[24]
  TGI: 3.17 µM
[25]
  TGI: 5.26 µM
[26]
  TGI: 19.9 µM
[27]
  TGI: 4.36 µM
[28]
  TGI: 3.59 µM
[29]
  TGI: 5.85 µM
[30]
  TGI: 17.7 µM
[31]
  TGI: 27.7 µM
[32]
  TGI: 16.2 µM
[33]
  TGI: 14.1 µM
[34]
  TGI: 23.3 µM
[35]
  TGI: 20 µM
[36]
  TGI: 19.3 µM
[37]
  TGI: 13.5 µM
[38]
  TGI: 22.1 µM
[39]
  TGI: 10.5 µM
[40]
  TGI: 5.45 µM
[41]
  TGI: 16.1 µM
[42]
  TGI: 19.5 µM
[43]
  TGI: 17.8 µM
[44]
  TGI: 16.8 µM
[45]
  TGI: 9.66 µM
[46]
  TGI: 3.6 µM
[47]
  TGI: 3.04 µM
[48]
  TGI: 26.5 µM
[49]
  TGI: 22.2 µM
[50]
  TGI: 23.5 µM
[51]
  TGI: 10 µM
[52]
  TGI: 16.8 µM
[53]
  TGI: 13.5 µM
[54]
  TGI: 24.7 µM
[55]
  TGI: 11.9 µM
[56]
  TGI: 3.54 µM
[57]
  TGI: 3.77 µM
[58]
  TGI: 19 µM
